Data from patent US11076594B2, “Pyrazolone compound or salt thereof, preparation method therefor, herbicide composition and use thereof” (QINGDAO KINGAGROOT CHEMICAL COMPOUNDS CO., LTD., priority 2015, dated 2021).

Legend:
Assay type in all cases: in vivo
Details in all cases: post-emergence spray at 4-5 leaf stage, 250 g/ha active ingredient with 450 kg/ha water, rated after 3 weeks in greenhouse
rice = assay: post-emergence stage experiment, crop (Table 1); set-up: key: Level 10: completely dead; Level 9: above 95% growth control rate; Level 8: above 90% growth control rate; Level 7: above 80% growth control rate; Level 6: above 70% growth control rate; Level 5: above 60% growth control rate; Level 4: above 50% growth control rate; Level 3: above 20% growth control rate; Level 2: 5%-20% growth control rate; Level 1: below 5% growth control rate
Procedure, shortened: (§1)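 Weed and crop seeds sown in soil-filled pots under 0.5-2 cm soil, greenhouse-grown, then sprayed at 4-5 leaf stage (2-3 weeks after sowing) with compound in acetone/Tween 80/water. Fresh weight growth control rate assessed after 3 weeks in greenhouse.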

wheat = assay: post-emergence stage experiment, crop (Table 1)
Procedure, shortened: as §1

corn = assay: post-emergence stage experiment, crop (Table 1)
Procedure, shortened: as §1

echinochloa = assay: weed control effect in post-emergence stage (Table 1); set-up: key: Level 10: completely dead; Level 9: above 95% growth control rate; Level 8: above 90% growth control rate; Level 7: above 80% growth control rate; Level 6: above 70% growth control rate; Level 5: above 60% growth control rate; Level 4: above 50% growth control rate; Level 3: above 20% growth control rate; Level 2: 5%-20% growth control rate; Level 1: below 5% growth control rate
Procedure, shortened: as §1

foxtail = assay: as above; set-up: key: Level 10: completely dead; Level 9: above 95% growth control rate; Level 8: above 90% growth control rate; Level 7: above 80% growth control rate; Level 6: above 70% growth control rate; Level 5: above 60% growth control rate; Level 4: above 50% growth control rate; Level 3: above 20% growth control rate; Level 2: 5%-20% growth control rate; Level 1: below 5% growth control rate
Procedure, shortened: as §1

bidens bipinnata = assay: as above; set-up: key: Level 10: completely dead; Level 9: above 95% growth control rate; Level 8: above 90% growth control rate; Level 7: above 80% growth control rate; Level 6: above 70% growth control rate; Level 5: above 60% growth control rate; Level 4: above 50% growth control rate; Level 3: above 20% growth control rate; Level 2: 5%-20% growth control rate; Level 1: below 5% growth control rate
Procedure, shortened: as §1

crab grass = assay: as above; set-up: key: Level 10: completely dead; Level 9: above 95% growth control rate; Level 8: above 90% growth control rate; Level 7: above 80% growth control rate; Level 6: above 70% growth control rate; Level 5: above 60% growth control rate; Level 4: above 50% growth control rate; Level 3: above 20% growth control rate; Level 2: 5%-20% growth control rate; Level 1: below 5% growth control rate
Procedure, shortened: as §1

Indian mallow = assay: as above; set-up: key: Level 10: completely dead; Level 9: above 95% growth control rate; Level 8: above 90% growth control rate; Level 7: above 80% growth control rate; Level 6: above 70% growth control rate; Level 5: above 60% growth control rate; Level 4: above 50% growth control rate; Level 3: above 20% growth control rate; Level 2: 5%-20% growth control rate; Level 1: below 5% growth control rate
Procedure, shortened: as §1

rorippa indica = assay: as above; set-up: key: Level 10: completely dead; Level 9: above 95% growth control rate; Level 8: above 90% growth control rate; Level 7: above 80% growth control rate; Level 6: above 70% growth control rate; Level 5: above 60% growth control rate; Level 4: above 50% growth control rate; Level 3: above 20% growth control rate; Level 2: 5%-20% growth control rate; Level 1: below 5% growth control rate
Procedure, shortened: as §1

Compound | effect on crop, Wheat (level) (wheat) | effect on crop, Rice (level) (rice) | effect on crop, Corn (level) (corn) | weed control effect, Echinochloa (level) (echinochloa) | weed control effect, Green foxtail (level) (foxtail) | weed control effect, Bidens bipinnata (level) (bidens bipinnata) | weed control effect, Crab grass (level) (crab grass) | weed control effect, Indian mallow (level) (Indian mallow) | weed control effect, Rorippa indica (level) (rorippa indica)
Cn1nc(C2CC2)c(C(=O)c2ccc(C(F)(F)F)c(-n3cccn3)c2Cl)c1O [Compound 073] | 1 (Level 1: below 5% growth control rate) | 8 (Level 8: above 90% growth control rate) | 3 (Level 3: above 20% growth control rate) | 5 (Level 5: above 60% growth control rate) | 10 | 2 (Level 2: 5%-20% growth control rate) | 5 (Level 5: above 60% growth control rate) | 10 | 7 (Level 7: above 80% growth control rate)
CCOc1c(C(=O)Oc2c(C(=O)c3ccc(C(F)(F)F)c(-n4cccn4)c3Cl)c(C3CC3)nn2C)cnn1C [Compound 074] | 1 (Level 1: below 5% growth control rate) | 9 (Level 9: above 95% growth control rate) | 3 (Level 3: above 20% growth control rate) | 6 (Level 6: above 70% growth control rate) | 9 (Level 9: above 95% growth control rate) | 4 (Level 4: above 50% growth control rate) | 4 (Level 4: above 50% growth control rate) | 10 | 10
CCOC(=O)Oc1c(C(=O)c2ccc(C(F)(F)F)c(-n3ccc(C)n3)c2Cl)c(C)nn1C [Compound 078] | 0 | 4 (Level 4: above 50% growth control rate) | 0 | 7 (Level 7: above 80% growth control rate) | 7 (Level 7: above 80% growth control rate) | 10 | 4 (Level 4: above 50% growth control rate) | 10 | 0
Cc1cc(C)n(-c2c(C(F)(F)F)ccc(C(=O)c3c(C)nn(C)c3OC(=O)c3cn(C)nc3C)c2Cl)n1 [Compound 094] | 0 | 0 | 1 (Level 1: below 5% growth control rate) | 1 (Level 1: below 5% growth control rate) | 1 (Level 1: below 5% growth control rate) | 2 (Level 2: 5%-20% growth control rate) | 3 (Level 3: above 20% growth control rate) | 3 (Level 3: above 20% growth control rate) | 0
CCn1ncc(C(=O)c2ccc(C(F)(F)F)c(N3CCCC3=O)c2Cl)c1OC(=O)c1cn(C)nc1C [Compound 097] | 1 (Level 1: below 5% growth control rate) | 7 (Level 7: above 80% growth control rate) | 1 (Level 1: below 5% growth control rate) | 10 | 10 | 10 | 3 (Level 3: above 20% growth control rate) | 10 | 10
CCn1nc(C)c(C(=O)c2ccc(C(F)(F)F)c(N3CCCC3=O)c2Cl)c1OC(=O)c1cn(C)nc1C [Compound 099] | 4 (Level 4: above 50% growth control rate) | 10 | 4 (Level 4: above 50% growth control rate) | 10 | 10 | 10 | 10 | 3 (Level 3: above 20% growth control rate) | 10

Now from value to compound, other results behind:

effect on crop, Wheat (level) (wheat) | Compound | effect on crop, Rice (level) (rice) | effect on crop, Corn (level) (corn) | weed control effect, Echinochloa (level) (echinochloa) | weed control effect, Green foxtail (level) (foxtail) | weed control effect, Bidens bipinnata (level) (bidens bipinnata) | weed control effect, Crab grass (level) (crab grass) | weed control effect, Indian mallow (level) (Indian mallow) | weed control effect, Rorippa indica (level) (rorippa indica)
0 | Cc1nn(C)c(OC(=O)c2cnn(C)c2)c1C(=O)c1ccc(C(F)(F)F)c(-n2cccn2)c1Cl [Compound 070] | 3 (Level 3: above 20% growth control rate) | 3 (Level 3: above 20% growth control rate) | 6 (Level 6: above 70% growth control rate) | 9 (Level 9: above 95% growth control rate) | 5 (Level 5: above 60% growth control rate) | 4 (Level 4: above 50% growth control rate) | 10 | 5 (Level 5: above 60% growth control rate)
2 (Level 2: 5%-20% growth control rate) | Cc1cnn(-c2c(C(F)(F)F)ccc(C(=O)c3cnn(C)c3O)c2Cl)c1 [Compound 080] | 1 (Level 1: below 5% growth control rate) | 3 (Level 3: above 20% growth control rate) | 5 (Level 5: above 60% growth control rate) | 10 | 8 (Level 8: above 90% growth control rate) | 6 (Level 6: above 70% growth control rate) | 7 (Level 7: above 80% growth control rate) | 7 (Level 7: above 80% growth control rate)
0 | CCOC(=O)Oc1c(C(=O)c2ccc(C(F)(F)F)c(-n3cc(C)cn3)c2Cl)c(C)nn1C [Compound 085] | 6 (Level 6: above 70% growth control rate) | 0 | 9 (Level 9: above 95% growth control rate) | 10 | 10 | 8 (Level 8: above 90% growth control rate) | 10 | 2 (Level 2: 5%-20% growth control rate)
0 | Cc1cnn(-c2c(C(F)(F)F)ccc(C(=O)c3c(C4CC4)nn(C)c3O)c2Cl)c1 [Compound 089] | 1 (Level 1: below 5% growth control rate) | 1 (Level 1: below 5% growth control rate) | 5 (Level 5: above 60% growth control rate) | 2 (Level 2: 5%-20% growth control rate) | 3 (Level 3: above 20% growth control rate) | 1 (Level 1: below 5% growth control rate) | 10 | 9 (Level 9: above 95% growth control rate)
